Literature values in patent US20250108011A1, “ORAL DOSAGE FORMS OF A […] ACTIVE ACID-LABILE SALT AND METHODS AND USES RELATED THERETO” (Rijksuniversiteit Groningen, priority 2022, published 2025).

Experiments:
[1] = system: calciphylaxis; conditions: oral maintenance therapy, ref [21]
[2] = system: hypertensive rats
[3] = system: hypercalciuric rats; conditions: oral, ref [22]
[4] = system: pregnant Dahl salt-sensitive rats; conditions: ref [23]

O=S([O-])([O-])=S.[Na+].[Na+] [STS, Sodium thiosulfate]
tolerability of oral administration [1]: well tolerated with no reported side effects | renal effect of oral STS as a single treatment regimen ([2]; oral, ref [19]): renoprotective effects | effect as a single treatment regimen in hypertensive rats ([2]; refs [17,18]): reduced blood pressure, proteinuria, kidney and heart damage | cardiac effect of oral STS ([2]; same model, ref [20]): Cardioprotective effects | effect on nephrolithiasis [3]: reduce calcium phosphate nephrolithiasis | effect on blood pressure [4]: antihypertensive effects
